Values joined by “and” are separate entries in the source; they are usually repeats but may differ in a detail not shown here. Equal entries are not always repeated.
Tests used:
SK-HEP-1 cells [1] = test: Protection of endothelial cells from H2O2-induced cell death (MTS assay); assay type: cell-based, human; parameters: key to Cell viability (MTS assay): cell viability as % survival; details: SK-HEP-1, n = 6 replicates
Protocol: The effect of increasing concentrations of NACCbl and GSCbl to protect endothelial cells from the effect of H2O2 was assessed. […] Cell viability was determined by MTS® assay. […] FIG. 3 illustrates that NACCbl and GSCbl protect endothelial cells from the effect of H2O2. […] Cell viability was determined by MTS® assay. […] There was no difference between the protection afforded by NACCbl and that by GSCbl. Both required 100 μM to achieve >80% survival.

SK-HEP-1 cells [2] = test: as above; assay type: cell-based, human; parameters: key to Cell viability (MTS assay): cell viability as % survival; details: for Cell viability (MTS assay): SK-HEP-1, n = 6 replicates
SK-HEP-1 cells [3] = test: NACCbl protection from homocysteine with inhibition of Hsp32/Hsp70 by Sn(IX) protoporphyrin, quercitin or siRNA (MTS assay)
SK-HEP-1 cells [4] = test: Effect of high concentrations of NACCbl and GSCbl on SK-HEP-1 cells (MTS assay, 24 hours); assay type: cell-based, human; details: for Cell viability by MTS assay (FIG. 13): SK-HEP-1, 3 replicates
Jurkat (T-cells) = test: Survival of Jurkat cells at variable concentration of Hcy; assay type: cell-based; details: NACCbl 30 μM, NAC 75 μM, CNCbl 15 μM, folate 30 μM
Protocol: (§1) Additional cell studies were conducted using Jurkat (T-cells) and U937 (monocyte) cell lines. These experiments confirmed that other cell types are killed by homocysteine, although these cell lines are not as sensitive as the SK-HEP-1 cell line discussed in the experiments above and are thus more resistant to homocysteine. Cells were exposed to NACCbl 30 μM, NAC 75 μM, CNCbl 15 μM, and folate 30 μM. […] In these Figures, the monocytes are N=6 and concentrations are as follows: NACCbl 30 μM, NAC 75 μM, CNCbl 15 μM, Folate 30 μM

U937 (monocytes) = test: Survival of U937 cells at variable concentration of Hcy; assay type: cell-based; details: NACCbl 30 μM, NAC 75 μM, CNCbl 15 μM, folate 30 μM
Protocol: as §1

Hsp32 = Hsp32 gene expression (RT-PCR, densitometry); assay type: cell-based, human; details: SK-HEP-1; Sn (IX) protoporphyrin 25 μM; Quercitin 15 μM
Protocol: Cells were plated into 6-, 12-, or 24-well cell culture clusters, at 2×10^3, 2×10^5, or 1×10^5 cells per well and incubated until 90% confluent. Treatments were applied as above.
Following incubation, cells were subjected to mRNA extraction followed by cDNA synthesis for each sample under test. Polymerase chain reaction cDNA templates were prepared for simplex PCR protocol. PCR products were then visualized using a UV Transilluminator and images captured using a Kodak ID gel imaging system. Densitometry and statistical analysis was then performed on each gene expression band image using PSP® v 10.0 running under Windows XP®.
mRNA extraction was performed using the Quickprep micro mRNA Purification Kit. Following incubation of cells post-treatment, the media was removed from the cells, adherent cells were re-suspended in 0.4 ml extraction buffer and 0.8 ml elution buffer at 65° C. was added.
A reaction mixture was prepared in individual microcentrifuge tubes containing 2 cDNA synthesis beads, 32 μl of the mRNA solution and 1 μl of pd(N)6. This mixture was incubated at 37° C. in a water bath for 60 minutes. After incubation, 27 μl of RNase-free DEPC treated water was added to each tube to make a total volume 60 μl. cDNA samples were prepared in duplicate. Sample 1 was used immediately in RT-PCR protocol. Sample 2 was prepared for qPCR protocol by the addition of 150 μl of 95% ice-cold ethanol and stored at −20° C.
Microcentrifuge tubes from puReTaq™Ready-To-Go™ PCR Beads containing one PCR bead were labeled for each sample required. Added to the PCR bead were 17 μl of RNase-free DEPC treated water, 1 μl sense primer, 1 μl anti-sense primer and 5 μl of the cDNA solution. RT-PCR conditions were as follows: Hsp70 and β-actin, pre-treatment step, 94° C. for 1 minute, followed by denaturing at 92° C. for 1 minute, annealing at 60° C. for 1 minute and extension at 72° C. for 1 minute. Total cycles, 30, post-treatment was then carried out at 72° C. for 10 minutes. For Hsp32, pre-treatment step, 95° C. for 2 minutes, followed by denaturing at 94° C. for 30 seconds, annealing at 58° C. for 1 minute and extension at 72° C. for 1 minute. Total cycles 45, post treatment was then carried out at 72° C. for 10 minutes. Following RT-PCR, samples were stored at −20° C.
Gels were visualised on a UV Transilluminator. Photographs were stored using a Kodak Digital camera system fitted with a UV filter set connected to a PC. Images were then transferred to the Kodak ID gel imaging system. Densitometry was performed on each gene expression band using PSP™ v10 running under Windows XP®.
Experiments were conducted using Hsp32 and Hsp 70 gene expression as the basis for study. […] The densitometric data are presented as means ±SEM of n=3 separate experiments. *p<0.05 or **p<0.01, treatment vs. control.

CC(=O)NC(C[S-])C(=O)O.CC1=C2N=C(C=C3N=C(C(C)=C4[N-]C(C(CC(N)=O)C4(C)CCC(=O)NCC(C)OP(=O)([O-])OC4C(CO)OC(n5cnc6cc(C)c(C)cc65)C4O)C4(C)N=C1C(CCC(N)=O)C4(C)CC(N)=O)C(CCC(N)=O)C3(C)C)C(CCC(N)=O)C2(C)CC(N)=O.[Co+3] [NACCbl, N-acetyl-L-cysteinylcobalamin]
Cell viability (MTS assay) (SK-HEP-1 cells [1]; compound 30 μM two hours, then H2O2 200 μM a further two hours): 5.2108 and 7.153 and 1.99 and 0.6632 | Cell viability (MTS assay) (SK-HEP-1 cells [1]; compound concentration 6.25, 2 hours, then 25 μM H2O2 24 hours): 42.8195 and 42.09 and 39.39 and 30.9 and 28 and 38.4058 | Cell viability (MTS assay) (SK-HEP-1 cells [1]; compound concentration 12.5, 2 hours, then 25 μM H2O2 24 hours): 45.26 and 41.7 and 44.99 and 45.5863 and 42.23 and 47.36 | Cell viability (MTS assay) (SK-HEP-1 cells [1]; compound concentration 25, 2 hours, then 25 μM H2O2 24 hours): 46.9 and 46.77 and 45.26 and 42.69 and 45.72 and 48.16 | Cell viability (MTS assay) (SK-HEP-1 cells [1]; compound concentration 100, 2 hours, then 25 μM H2O2 24 hours): 61.5942 and 56.59 and 70.22 and 74.37 and 64.23 and 61.79 | Cell viability (MTS assay) (SK-HEP-1 cells [1]; compound concentration 200, 2 hours, then 25 μM H2O2 24 hours): 100.7246 and 99.7365 and 101.8445 and 107.3123 and 92.69 and 97.56 | Survival (SK-HEP-1 cells [2]; NACCbl 30 μM, above 25 μM H2O2): below 60% | Cell viability (MTS assay) (SK-HEP-1 cells [2]; compound 30 μM two hours, then H2O2 0 μM): 102.9844 and 100.8053 and 103.2212 and 107.9583 and 101.8948 and 98.44 | Cell viability (MTS assay) (SK-HEP-1 cells [2]; compound 30 μM two hours, then H2O2 0.781 μM a further two hours): 93.46 and 102.7949 and 99.24 and 101.3738 and 103.2686 and 95.45 | Cell viability (MTS assay) (SK-HEP-1 cells [2]; compound 30 μM two hours, then H2O2 1.56 μM a further two hours): 98.53 and 91.38 and 98.72 and 100.1421 and 89.77 and 96.12 | Cell viability (MTS assay) (SK-HEP-1 cells [2]; compound 30 μM two hours, then H2O2 3.125 μM a further two hours): 88.2 and 93.18 and 92.89 and 99.76 and 92.42 and 91.8 | Cell viability (MTS assay) (SK-HEP-1 cells [2]; compound 30 μM two hours, then H2O2 6.25 μM a further two hours): 88.2 and 87.59 and 82.14 and 81.57 and 78.07 and 77.12 | Cell viability (MTS assay) (SK-HEP-1 cells [2]; compound 30 μM two hours, then H2O2 12.5 μM a further two hours): 77.17 and 76.98 and 76.6 and 67.12 and 77.6883 and 74.14 | Cell viability (MTS assay) (SK-HEP-1 cells [2]; compound 30 μM two hours, then H2O2 25 μM a further two hours): 67.12 and 66.75 and 61.87 and 56.18 and 55.3766 and 55.95 | Cell viability (MTS assay) (SK-HEP-1 cells [2]; compound 30 μM two hours, then H2O2 50 μM a further two hours): 50.21 and 48.27 and 44.955 and 45.71 and 48.18 and 44.58 | Cell viability (MTS assay) (SK-HEP-1 cells [2]; compound 30 μM two hours, then H2O2 100 μM a further two hours): 29.99 and 23.97 and 19.56 and 18.901 and 17.53 and 20.89 | Cell viability (MTS assay) (SK-HEP-1 cells [2]; compound concentration 1.562, 2 hours, then 25 μM H2O2 24 hours): 4.677 and 1.845 and 5.27 and 1.647 and 4.348 and 5.599 | Cell viability (MTS assay) (SK-HEP-1 cells [2]; compound concentration 3.125, 2 hours, then 25 μM H2O2 24 hours): 26.8116 and 19.5 and 35.84 and 30.5 and 35.24 and 33 | Cell viability by MTS assay (FIG. 11), replicates 1-6 (SK-HEP-1 cells [3]; SK-HEP-1, NACCbl 30 μM two hours with or without Sn(IX)PP/quercetin, then Hcy conc. 200 two hours, label Hcy = Hcy alone): 1.378 and 1.167 and 1.33 and 1.456 and 1.491 and 1.537 | Reduction of the protection by NACCbl on inhibition of Hsp32 (SK-HEP-1 cells [3]; Sn(IX) protoporphyrin or siRNA, p<0.001): 10-20% | Cell viability by MTS assay (FIG. 11), replicates 1-6 (SK-HEP-1 cells [3]; as E45, Hcy conc. 0): 2.885 and 2.698 and 2.821 and 2.771 and 2.691 and 2.7 | Cell viability by MTS assay (FIG. 11), replicates 1-6 (SK-HEP-1 cells [3]; as E45, Hcy conc. 1.78): 2.647 and 2.551 and 2.789 and 2.89 and 2.549 and 2.611 | Cell viability by MTS assay (FIG. 11), replicates 1-6 (SK-HEP-1 cells [3]; as E45, Hcy conc. 3.125): 2.453 and 2.338 and 2.36 and 2.317 and 2.418 and 2.535 | Cell viability by MTS assay (FIG. 11), replicates 1-6 (SK-HEP-1 cells [3]; as E45, Hcy conc. 6.25): 2.41 and 2.4 and 2.322 and 2.201 and 2.115 and 2.187 | Cell viability by MTS assay (FIG. 11), replicates 1-6 (SK-HEP-1 cells [3]; as E45, Hcy conc. 12.5): 2.21 and 2.11 and 2.045 and 2.065 and 2.101 and 2.324 | Cell viability by MTS assay (FIG. 11), replicates 1-6 (SK-HEP-1 cells [3]; as E45, Hcy conc. 25): 2.1 and 2.19 and 1.879 and 1.937 and 1.779 and 1.837 | Cell viability by MTS assay (FIG. 11), replicates 1-6 (SK-HEP-1 cells [3]; as E45, Hcy conc. 50): 1.678 and 1.832 and 1.881 and 1.73 and 1.74 and 1.855 | Cell viability by MTS assay (FIG. 11), replicates 1-6 (SK-HEP-1 cells [3]; as E45, Hcy conc. 100): 1.678 and 1.592 and 1.694 and 1.773 and 1.732 and 1.639 | Protection by NACCbl on inhibition of both Hsp32 and Hsp70 together (SK-HEP-1 cells [3]; chemically and directly): totally removed protection | Reduction of the protection by NACCbl on inhibition of Hsp70 (SK-HEP-1 cells [3]; quercitin or siRNA, p<0.001): 20-40% | Survival (SK-HEP-1 cells [4]; SK-HEP-1, 10 mM, 24 hours): over 60% | Cell viability by MTS assay (FIG. 13) (SK-HEP-1 cells [4]; compound conc. 0.61, 24 hours): 2.572 and 2.498 and 2.473 | Cell viability by MTS assay (FIG. 13) (SK-HEP-1 cells [4]; compound conc. 1.22, 24 hours): 2.546 and 2.524 and 2.538 | Cell viability by MTS assay (FIG. 13) (SK-HEP-1 cells [4]; compound conc. 2.441, 24 hours): 2.592 and 2.536 and 2.499 | Cell viability by MTS assay (FIG. 13) (SK-HEP-1 cells [4]; compound conc. 4.882, 24 hours): 2.532 and 2.463 and 2.457 | Cell viability by MTS assay (FIG. 13) (SK-HEP-1 cells [4]; compound conc. 9.765, 24 hours): 2.505 and 2.474 and 2.514 | Cell viability by MTS assay (FIG. 13) (SK-HEP-1 cells [4]; compound conc. 19.531, 24 hours): 2.485 and 2.466 and 2.502 | Cell viability by MTS assay (FIG. 13) (SK-HEP-1 cells [4]; compound conc. 39.062, 24 hours): 2.503 and 2.474 and 2.453 | Cell viability by MTS assay (FIG. 13) (SK-HEP-1 cells [4]; compound conc. 78.125, 24 hours): 2.521 and 2.488 and 2.475 | Cell viability by MTS assay (FIG. 13) (SK-HEP-1 cells [4]; compound conc. 156.25, 24 hours): 2.484 and 2.42 and 2.492 | Cell viability by MTS assay (FIG. 13) (SK-HEP-1 cells [4]; compound conc. 312.5, 24 hours): 2.409 and 2.301 and 2.437 | Cell viability by MTS assay (FIG. 13) (SK-HEP-1 cells [4]; compound conc. 625, 24 hours): 2.358 and 2.242 and 2.347 | Cell viability by MTS assay (FIG. 13) (SK-HEP-1 cells [4]; compound conc. 1250, 24 hours): 2.2 and 2.055 and 2.3 | Cell viability by MTS assay (FIG. 13) (SK-HEP-1 cells [4]; compound conc. 2500, 24 hours): 1.989 and 1.891 and 2.085 | Cell viability by MTS assay (FIG. 13) (SK-HEP-1 cells [4]; compound conc. 5000, 24 hours): 2.081 and 2.003 and 2.004 | Cell viability by MTS assay (FIG. 13) (SK-HEP-1 cells [4]; compound conc. 10000, 24 hours): 1.908 and 1.82 and 1.732 | Protection of Jurkat cells from death (Jurkat (T-cells)): more effective at protecting these cells from death than NAC, CN Cbl or folate | Protection of U937 cells from death (U937 (monocytes)): more effective at protecting these cells from death than NAC, CN Cbl or folate | Hsp32 gene expression (Hsp32): induced

Source: patent US20080113900A1, “Pharmaceutical compositions and therapeutic applications for the use of a synthetic vitamin B12 derivative, glutathionylcobalamin” (priority 2006, published 2008)
